This passage reports EC50 results from US8501786B2, “Hydroxymethyl pyrrolidines as beta 3 adrenergic receptor agonists” (Merck Sharp & Dohme Corp., priority 2009, dated 2013).

T1 sequence (P13945 whole entry): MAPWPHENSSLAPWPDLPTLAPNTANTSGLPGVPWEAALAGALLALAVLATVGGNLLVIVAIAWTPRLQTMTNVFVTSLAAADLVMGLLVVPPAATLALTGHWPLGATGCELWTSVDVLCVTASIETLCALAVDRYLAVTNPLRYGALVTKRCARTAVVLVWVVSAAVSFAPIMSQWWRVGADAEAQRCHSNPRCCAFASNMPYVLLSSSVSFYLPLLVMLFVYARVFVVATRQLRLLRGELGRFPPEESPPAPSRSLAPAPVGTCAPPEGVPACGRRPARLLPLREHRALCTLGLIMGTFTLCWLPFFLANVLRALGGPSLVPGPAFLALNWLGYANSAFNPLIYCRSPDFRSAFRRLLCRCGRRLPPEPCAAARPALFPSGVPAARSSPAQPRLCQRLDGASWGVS

This experiment has as its target T1, human β3 adrenergic receptor (Homo sapiens, UniProt P13945).
T1 construct: stably transfected with the cloned β-adrenergic receptor (β1, β2 or β3); expressed in transfected cells; host or cells: Chinese hamster ovary (CHO) cells, stably transfected
The experiment in a line: Functional assay: cAMP production (LANCE TR-FRET) in CHO cells stably transfected with cloned β3 adrenergic receptor. In kind it is cell-based. The note with it: Table 3; cAMP production, CHO cells expressing human β3 AR; read-out: Human β3 functional. The method, then:
Functional Assay: cAMP production in response to ligand is measured according to Barton, et al. (1991, Agonist-induced desensitization of D2 dopamine receptors in human Y-79 retinoblastoma cells. Mol. Pharmacal. v3229:650-658) modified as follows, cAMP production is measured using a homogenous time-resolved fluorescence resonance energy transfer immunoassay (LANCE™, Perkin Elmer) according to the manufacture's instructions. Chinese hamster ovary (CHO) cells, stably transfected with the cloned β-adrenergic receptor (β1, β2 or β3) are harvested after 3 days of subculturing. Harvesting of cells is done with Enzyme-free Dissociation Media (Specialty Media). Cells are then counted and resuspended in assay buffer (Hank's Balanced salt solution supplemented with 5 mM HEPES, […]) containing a phosphodiesterase inhibitor (IBMX, 0.6 mM). The reaction is initiated by mixing 6,000 cells in 6 μL with 6 μL Alexa Fluor labeled cAMP antibody (LANCE™ kit) which is then added to an assay well containing 12 μL of compound (diluted in assay buffer to 2× final concentration). The reaction proceeds for 30 min at room temperature and is terminated by the addition of 24 ul detection buffer (LANCE™ kit). The assay plate is then incubated for 1 h at room temperature and time-resolved fluorescence measured on a Perkin Elmer Envision reader or equivalent. The unknown cAMP level is determined by comparing fluorescence levels to a cAMP standard curve.
The non-selective, full agonist β-adrenergic ligand isoproterenol is used at all three receptors to determine maximal stimulation. The human β3 adrenergic receptor (AR) selective ligand (S)-N-[4-[2-[[2-hydroxy-3-(4-hydroxyphenoxy)propyl]amino]ethyl]-phenyl]-4-iodobenzenesulfonamide is used as a control in all assays. Isoproterenol is titrated at a final concentration in the assay of 10^-10 M to 10-5 and the selective ligand (S)-N-[4-[2-[[2-hydroxy-3-(4-hydroxyphenoxy)propyl]amino]ethyl]phenyl]-4-iodobenzenesulfonamide is titrated at the β3 receptor at concentration of 10^-10 M to 10^-5 M. Unknown ligands are titrated at all 3 β-adrenergic receptor subtypes at a final concentration in the assay of 10^-10 M to 10^-5 M to determine the EC50. The EC50 is defined as the concentration of compound that gives 50% activation of its own maximum. Data are analyzed using Microsoft Excel and Graphpad Prism or an internally developed data analysis software package.
On the technique in general: Cyclic AMP is a second messenger, typically raised through Gs and lowered through Gi signalling.
`CC(C(=O)Nc1ccc(CC2CC[C@H]([C@H](O)c3cccnc3)N2)cc1)c1ccn[nH]1` (single isomer, unassigned) [Example 179]: the EC50 lay in the range of 11 to 100 nM. Regarding `CC(C(=O)Nc1ccc(CC2CC[C@H]([C@H](O)c3cccnc3)N2)cc1)c1nnn(C)n1` (single isomer, unassigned) [Example 180], the EC50 was 11 to 100 nM. To `CC(C(=O)Nc1ccc(CC2CC[C@H]([C@H](O)c3cccnc3)N2)cc1)c1nnn(C)n1` (single isomer, unassigned) [Example 181] belongs 11 to 100 nM. As for `CC(C(=O)Nc1ccc(CC2CC[C@H]([C@H](O)c3cccnc3)N2)cc1)n1cnnn1` (single isomer, unassigned) [Example 182], the figure is 11 to 100 nM.

In the case of `CC(C(=O)Nc1ccc(CC2CC[C@H]([C@H](O)c3cccnc3)N2)cc1)n1cnnn1` (single isomer, unassigned) [Example 183], the EC50 lay in the range of 1 to 10 nM. As for `CCC(C(=O)Nc1ccc(CC2CC[C@H]([C@H](O)c3cccnc3)N2)cc1)n1cccn1` (single isomer, unassigned) [Example 184], the figure is 1 to 10 nM; as for `CCC(C(=O)Nc1ccc(CC2CC[C@H]([C@H](O)c3cccnc3)N2)cc1)n1cccn1` (single isomer, unassigned) [Example 185], 1 to 10 nM. `O=C(Nc1ccc(CC2CC[C@H]([C@H](O)c3cccnc3)N2)cc1)C1CCc2sc(Cl)nc21` (single isomer, unassigned) [Example 186]: the EC50 was less than 1 nM. As for `O=C(Nc1ccc(CC2CC[C@H]([C@H](O)c3cccnc3)N2)cc1)C1CCc2sc(Cl)nc21` (single isomer, unassigned) [Example 187], the figure is 11 to 100 nM.

On to `O=C(Nc1ccc(CC2CC[C@H]([C@H](O)c3cccnc3)N2)cc1)C1CCc2sc(CO)nc21` (single isomer, unassigned) [Example 188], for which the EC50 lay in the range of 1 to 10 nM. As for `O=C(Nc1ccc(CC2CC[C@H]([C@H](O)c3cccnc3)N2)cc1)C1CCc2sc(CO)nc21` (single isomer, unassigned) [Example 189], the figure is 11 to 100 nM; as for `O=C(Nc1ccc(CC2CC[C@H]([C@H](O)c3cccnc3)N2)cc1)C1CCc2scnc21` (single isomer, unassigned) [Example 190], less than 1 nM. As for `O=C(Nc1ccc(CC2CC[C@H]([C@H](O)c3cccnc3)N2)cc1)C1CCc2scnc21` (single isomer, unassigned) [Example 191], the EC50 lay in the range of 11 to 100 nM. As for `O=C(Nc1ccc(CC2CC[C@H]([C@H](O)c3cccnc3)N2)cc1)C1CCc2nc3ccccc3c(=O)n21` (single isomer, unassigned) [Example 192], the EC50 was in the range of 11 to 100 nM.

Take `O=C(Nc1ccc(CC2CC[C@H]([C@H](O)c3cccnc3)N2)cc1)C1CCc2nc3ccccc3c(=O)n21` (single isomer, unassigned) [Example 193]: the EC50 fell in the range of 1 to 10 nM.

Turning to `O=C(Nc1ccc(CC2CC[C@H]([C@H](O)c3cccnc3)N2)cc1)[C@@H]1CCc2ncnn21` (single isomer, unassigned) [Example 194], the EC50 was 11 to 100 nM.

In the case of `CC(C(=O)Nc1ccc(CC2CC[C@H]([C@H](O)c3cccnc3)N2)cc1)c1cscn1` (single isomer, unassigned) [Example 195], the EC50 is less than 1 nM. As for `CC(C(=O)Nc1ccc(CC2CC[C@H]([C@H](O)c3cccnc3)N2)cc1)c1cscn1` (single isomer, unassigned) [Example 196], the figure is 11 to 100 nM; as for `O=C1CC[C@@H](C(=O)Nc2ccc(CC3CC[C@H]([C@H](O)c4cccnc4)N3)cc2)N1` (single isomer, unassigned) [Example 197], 101 to 1000 nM. In the case of `CC(C(=O)Nc1ccc(CC2CC[C@H]([C@H](O)c3cccnc3)N2)cc1)n1cc(C(=O)O)nn1` (single isomer, unassigned) [Example 198], the EC50 is 11 to 100 nM. As for `CC(C(=O)Nc1ccc(CC2CC[C@H]([C@H](O)c3cccnc3)N2)cc1)n1cc(C(=O)O)nn1` (single isomer, unassigned) [Example 199], the figure is 11 to 100 nM; as for `CC(C(=O)Nc1ccc(CC2CC[C@H]([C@H](O)c3cccnc3)N2)cc1)n1cc(C(N)=O)nn1` (single isomer, unassigned) [Example 200], 11 to 100 nM; as for `CC(C(=O)Nc1ccc(CC2CC[C@H]([C@H](O)c3cccnc3)N2)cc1)n1cc(C(N)=O)nn1` (single isomer, unassigned) [Example 201], 1 to 10 nM.

`CC(C(=O)Nc1ccc(CC2CC[C@H]([C@H](O)c3cccnc3)N2)cc1)n1ccc(C(N)=O)n1` (single isomer, unassigned) [Example 202]: the EC50 lay in the range of 1 to 10 nM. As for `CC(C(=O)Nc1ccc(CC2CC[C@H]([C@H](O)c3cccnc3)N2)cc1)n1ccc(C(N)=O)n1` (single isomer, unassigned) [Example 203], the figure is 101 to 1000 nM. On to `CCC(C(=O)Nc1ccc(CC2CC[C@H]([C@H](O)c3cccnc3)N2)cc1)c1cscn1` (single isomer, unassigned) [Example 204], for which the EC50 was in the range of 1 to 10 nM.

For `CCC(C(=O)Nc1ccc(CC2CC[C@H]([C@H](O)c3cccnc3)N2)cc1)c1cscn1` (single isomer, unassigned) [Example 205], the EC50 was in the range of 11 to 100 nM. To `CC(C(=O)Nc1ccc(CC2CC[C@H]([C@H](O)c3cccnc3)N2)cc1)n1nncc1C(=O)O` (single isomer, unassigned) [Example 206] belongs 1 to 10 nM; to `CC(C(=O)Nc1ccc(CC2CC[C@H]([C@H](O)c3cccnc3)N2)cc1)n1nncc1C(=O)O` (single isomer, unassigned) [Example 207], 11 to 100 nM; to `COC(=O)c1cnnn1C(C)C(=O)Nc1ccc(CC2CC[C@H]([C@H](O)c3cccnc3)N2)cc1` (single isomer, unassigned) [Example 208], 1 to 10 nM. Consider `COC(=O)c1cnnn1C(C)C(=O)Nc1ccc(CC2CC[C@H]([C@H](O)c3cccnc3)N2)cc1` (single isomer, unassigned) [Example 209], for which the EC50 is 101 to 1000 nM. On to `Cc1cn(C(C)C(=O)Nc2ccc(CC3CC[C@H]([C@H](O)c4cccnc4)N3)cc2)nn1` (single isomer, unassigned) [Example 210], for which the EC50 is 11 to 100 nM. In the case of `Cc1cn(C(C)C(=O)Nc2ccc(CC3CC[C@H]([C@H](O)c4cccnc4)N3)cc2)nn1` (single isomer, unassigned) [Example 211], the EC50 lay in the range of 11 to 100 nM. Turning to `Cc1cnnn1C(C)C(=O)Nc1ccc(CC2CC[C@H]([C@H](O)c3cccnc3)N2)cc1` (single isomer, unassigned) [Example 212], the EC50 is 101 to 1000 nM. As for `Cc1cnnn1C(C)C(=O)Nc1ccc(CC2CC[C@H]([C@H](O)c3cccnc3)N2)cc1` (single isomer, unassigned) [Example 213], the EC50 fell in the range of 1 to 10 nM. Take `CC(C(=O)Nc1ccc(CC2CC[C@H]([C@H](O)c3cccnc3)N2)cc1)c1ccn(C)n1` (single isomer, unassigned) [Example 214]: the EC50 lay within 11 to 100 nM.

On to `CC(C(=O)Nc1ccc(CC2CC[C@H]([C@H](O)c3cccnc3)N2)cc1)c1ccn(C)n1` (single isomer, unassigned) [Example 215], for which the EC50 fell in the range of 101 to 1000 nM. Take `Cc1nnc2c(C(C)C(=O)Nc3ccc(CC4CC[C@H]([C@H](O)c5cccnc5)N4)cc3)cccn12` (single isomer, unassigned) [Example 216]: the EC50 was in the range of 11 to 100 nM.
